Results published in patent publication EP4813463A2, “TYK2 INHIBITORS AND COMPOSITIONS AND METHODS THEREOF” (Lynk Pharmaceuticals Co. Ltd., priority 2023, dated 2024).
pIC50: −log10 of the molar value. Values after ≈ are worked out from the molar mass of the structure shown. Like-named read-outs stand apart in the source and are kept apart here.

How the values were obtained:
TYK2-JH2 domain = molecular target: T1, TYK2-JH2 domain (Homo sapiens, UniProt P29597); assay: Binding activity test for JH2 domain of TYK2 (Tb-antibody/tracer FRET); conditions: for pIC50: JH2 domain enzyme, 60 min at 25°C, then 4°C overnight, read-out: TYK2 JH2 Binding IC50; for JAK1/TYK2 selectivity: ratio of JAK1 JH2 to TYK2 JH2 binding IC50
T1 construct: JAK1-JH2 domain or TYK2-JH2 domain enzyme in assay buffer
Procedure, shortened: (§1)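 IC50 values (nM) come from TR-FRET readings taken after a 25°C incubation followed by overnight at 4°C. Each well held JH2 domain protein, Tb-antibody, tracer and test compound titrated in 11 threefold steps, with DMSO high and low controls.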

JAK1-JH2 domain = molecular target: T2, JAK1-JH2 domain (Homo sapiens, UniProt P23458); assay: Binding activity test for JH2 domain of JAK1 (Tb-antibody/tracer FRET); conditions: JH2 domain enzyme; 60 min at 25°C, then 4°C overnight; read-out: JAK1 JH2 Binding IC50
T2 construct: JAK1-JH2 domain or TYK2-JH2 domain enzyme in assay buffer
Procedure, shortened: as §1

[1] = tested on: Ba/F3-FL-TYK2-P760L cells; assay: Anti-proliferative assay in engineered Ba/F3 cells (Cell-Titer Glo, 72 h); type: cell-based; conditions: 72 h compound treatment, concentration that causes 50% growth inhibition, read-out: Baf3-FL-T2P760L
Procedure, shortened: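 IC50 from luminescent ATP viability after 72 h compound exposure (37 °C, 5% CO2), % inhibition normalised to DMSO-treated cells minus medium blank. IL-3-free Ba/F3-FL-TYK2-P760L (Tel-JAK fusion) cells in 10% FBS RPMI-1640 received 9 three-fold doses, top 20 µM, 0.1% DMSO.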

Kinetic solubility = type: physicochemical; conditions: phosphate buffer, pH 7.4, aqueous buffer, kinetic from dmso stock, 100 mM pH 7.4 phosphate buffer, 1% DMSO, room temperature, read-out: Kinetics Solubility_PBS7.4
Protocol: Aliquots of 8 µL of reference and test compound stock solutions (10 mM/5 mM) are added into 792 µL of 100 mM pH 7.4 phosphate buffer. The final DMSO concentration is 1%. Sample tubes are shaken for 2 hours at 1000 rpm at room temperature. Samples are centrifuged at 12000 rpm for 10 min to precipitate un-dissolved particles. And transfer the supernatants to a new tube or plate. Add 5 µL of samples (no diluted, 10 times diluted, and 100 times diluted) and standard curve samples to 95 µL of ACN containing IS for LC-MS/MS analysis. Kinetic Solubilities Values of Exemplary Compounds

pSTAT1 = assay: Phosphorylation inhibition of STAT in human whole blood (IFN-alpha stimulated, flow cytometry); type: cell-based; conditions: T-cell, 20 min, IFN-alpha stimulation 20 mins, CD3 T cells, read-out: pSTAT1 inhibition in hWB (IC50)
Protocol: The inhibitory potential of test articles in human whole blood assay was evaluated by the method of flow cytometry.
IFN-alpha will activate JAK1 and TYK2 kinase in T cells by binding to IFN receptors, and then lead to phosphorylation of STAT1 and STAT2. The phosphorylated STAT1 enter nuclear and promote transcription and expression of IFN-gamma. To evaluate the efficacy of TYK2i in T cells, freshly collected human whole blood will be stimulated with certain unit of human IFN-alpha (Universal Type I IFN(1MU), R&D, 11200-2) for 20 mins in incubator. After stimulation, fix cells with Phosflow™ Fix Buffer I (BD, 557870), and then collect fixed cells by centrifugation (500 g, 8min). Wash cells once with pre-cooled PBS, and then permeabilize cells with cold Perm Buffer III buffer (BD, 558050) for 45 mins on ice. Collect cells by centrifugation (600 g, 8min) and washed twice with cold PBS. Stain cells with anti-human CD3(FITC Mouse Anti-Human CD3, BD, 555332) and anti-pSTAT1_Y701(Alexa Fluor 647 Mouse Anti-Stat1 (pY701), BD, 612597) antibodies. Detect pSTAT1 by flow cytometry (CytoFlex S) and analyze data with FlowJo and GraphPad Prism 8 software. IC50 values of test articles were determined using 4- parameter logistic equation.

[2] = Microsomal metabolic stability assay; type: in vitro ADME; conditions: human, liver microsomes, pH 7.4, 0.5 mg/mL microsomal protein, 1 µM test article, 2 mM NADPH; for microsomal CLint at 1 µM: read-out: Human LM Clint; for half-life at 1 µM: read-out: Human LM T1/2
Protocol: Microsomes were pre-incubated with test compound or control compounds for 5 min at 37°C in 100 mM potassium phosphate buffer, pH 7.4, 1.0 mM EDTA. The reaction was initiated by addition of 15 µL of the NADPH regenerating system to 30 µL of each incubation mixture per time point. The final incubation condition was composed of 0.5 mg/mL microsomal protein, 1 µM test article/positive control, 2 mM NADPH. The 0-minute samples were prepared by addition of a 30 µL aliquot of each incubation mixture to 135 µL quench reagent to precipitate proteins. And then a 15 µL aliquot of the NADPH regenerating system was added. At 5, 15, 30 and 45 minutes, the reaction will be stopped by the addition of cold acetonitrile solution containing internal standard. The samples taken at all time points were centrifuged at 5000×g for 15 minutes. 50 µL of supernatant are taken into 96-well assay plates pre-added with 50 µL ultrapure water, and then analyzed by LC/MS/MS.
Concentrations of test articles, control compounds in the samples were determined by using LC/MS/MS method. Plotting of the chromatograms and peak area integrations are carried out by Analyst (AB Sciex).
In the determination of the in vitro elimination constant (ke) of the control compounds, the analyte/internal standard peak area ratios will be converted to percentage remaining (%Remaining) with the following equation: %Remaining = (Peak area ratio of analyte to IS at each time point)/(Peak area ratio of analyte to IS at t = 0) × 100% [formula]
The CLint of microsomes was calculated using the formula: CLint (mic)=0.693/T1/2 /mg microsome protein per mL. The slope was measured by the natural logarithm of the percentage of the residual compound and time, T1/2 was calculated according to the following formula. T = (0.693)/(−slope) [formula]

T2 sequence (P23458 583-855 limits assumed): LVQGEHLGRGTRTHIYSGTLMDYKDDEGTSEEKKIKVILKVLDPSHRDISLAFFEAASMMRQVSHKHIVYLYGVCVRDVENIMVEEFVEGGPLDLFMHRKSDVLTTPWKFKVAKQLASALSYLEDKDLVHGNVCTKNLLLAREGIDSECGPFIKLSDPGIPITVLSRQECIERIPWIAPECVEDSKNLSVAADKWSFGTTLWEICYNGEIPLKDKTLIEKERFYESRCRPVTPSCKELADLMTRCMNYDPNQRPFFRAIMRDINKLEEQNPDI
T1 sequence (P29597 589-875 limits assumed): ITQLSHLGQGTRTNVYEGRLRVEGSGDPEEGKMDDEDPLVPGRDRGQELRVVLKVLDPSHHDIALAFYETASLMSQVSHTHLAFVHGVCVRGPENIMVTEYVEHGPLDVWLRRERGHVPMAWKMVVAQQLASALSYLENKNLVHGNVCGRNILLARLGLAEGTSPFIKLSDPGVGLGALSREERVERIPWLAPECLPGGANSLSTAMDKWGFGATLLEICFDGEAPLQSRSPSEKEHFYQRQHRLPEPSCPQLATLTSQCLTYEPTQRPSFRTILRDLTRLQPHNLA

| Compound | pIC50 (TYK2-JH2 domain) | JAK1/TYK2 selectivity (TYK2-JH2 domain) | pIC50 (JAK1-JH2 domain) | pIC50 ([1]; Mus musculus, BaF3, 72 h) | solubility kinetic at 2 h (Kinetic solubility) [µM] | pIC50 [1] | pIC50 (pSTAT1) | microsomal CLint at 1 µM [2] [µL/min/mg] | half-life at 1 µM [2] [min] |
| --- | --- | --- | --- | --- | --- | --- | --- | --- | --- |
| [2H]C([2H])([2H])NC(=O)c1cnc(NC(=O)C2(F)CC2)cc1Nc1cnn2ccc([C@H](O)C(F)(F)F)c(OC)c12 [Example 19, (S)-6-(1-fluorocyclopropane-1-carboxamido)-4-((4-methoxy-5-(2,2,2-trifluoro-1-hydroxyethyl)pyrazolo[1,5-a]pyridin-3-yl)amino)-N-(methyl-d3)nicotinamide] | 9.56 | 1011.9 | 6.56 | 6.86 | 22.7 (≈ 11.3 µg/mL) |  |  |  |  |
| [2H]C([2H])([2H])NC(=O)c1cnc(NC(=O)C2CC2)cc1Nc1cnn2ccc(C(C)C(F)(F)F)c(OC)c12 (stereo not shown) [Example 9, 6-(Cyclopropanecarboxamido)-4-((4-methoxy-5-(1,1,1-trifluoropropan-2-yl)pyrazolo[1,5-a]pyridin-3-yl)amino)-N-(methyl-d3)nicotinamide] | 9.80 | 55.4 | 8.06 |  | 60 (≈ 28.8 µg/mL) | 7.29 |  |  |  |
| [2H]C([2H])([2H])NC(=O)c1cnc(NC(=O)C2CC23CC3)cc1Nc1cnn2ccc([C@H](O)C(F)(F)F)c(OC)c12 (stereo partly drawn) [Example 32, 4-((4-Methoxy-5-((S)-2,2,2-trifluoro-1-hydroxyethyl)pyrazolo[1,5-a]pyridin-3-yl)amino)-N-(methyl-d3)-6-(spiro[2.2]pentane-1-carboxamido)nicotinamide] | 9.77 | 137.2 | 7.63 | 7.37 | 62.2 (≈ 31.6 µg/mL) |  |  |  |  |
| [2H]C([2H])([2H])NC(=O)c1cnc(NC(=O)[C@@H]2C[C@@H]2F)cc1Nc1nn(C)c2ccc([C@H](OC([2H])([2H])[2H])C(F)(F)F)c(OC)c12 [Example 192, 6-((1S,2S)-2-Fluorocyclopropane-1-carboxamido)-4-((4-methoxy-1-methyl-5-((S)-2,2,2-trifluoro-1-(methoxy-d3)ethyl)-1H-indazol-3-yl)amino)-N-(methyl-d3)nicotinamide] | 10.12 | 35.08 | 8.58 | 10.06 |  |  | 7.61 |  |  |
| [2H]C([2H])([2H])NC(=O)c1cnc(NC(=O)C2CC2)nc1Nc1cnn2ccc(Cl)c(OC)c12 [Example 4, 4-((5-Chloro-4-methoxypyrazolo[1,5-a]pyridin-3-yl)amino)-2-(cyclopropanecarboxamido)-N-(methyl-d3)pyrimidine-5-carboxamide] | 9.79 | 93.5 | 7.81 | 7.41 |  |  | 6.51 |  |  |
| CNC(=O)c1nnc(NC(=O)C2CC2)cc1Nc1nc2ccc(N3CC(OC)C3)cn2n1 [Example 188, 6-(Cyclopropanecarboxamido)-4-((6-(3-methoxyazetidin-1-yl)-[1,2,4]triazolo[1,5-a]pyridin-2-yl)amino)-N-methylpyridazine-3-carboxamide, reference compound] |  |  |  |  | 1.01 (≈ 0.442 µg/mL) |  |  |  |  |
| [2H]C([2H])([2H])NC(=O)c1nnc(NC(=O)C2CC2)cc1Nc1nn(C)c2ccc([C@H](OC)C(F)(F)F)c(OC)c12 [Example 51B, (S)-6-(cyclopropanecarboxamido)-4-((4-methoxy-1-methyl-5-(2,2,2-trifluoro-1-methoxyethyl)-1H-indazol-3-yl)amino)-N-(methyl-d3)pyridazine-3-carboxamide] | 9.77 | 7.43 | 8.90 | 9.40 |  |  | 7.12 | 8.06 | 172 |
| [2H]C([2H])([2H])NC(=O)c1cnc(NC(=O)C2CC2)cc1Nc1cnn2ccc(CO)c(OC)c12 [Example 22, 6-(Cyclopropanecarboxamido)-4-((5-(hydroxymethyl)-4-methoxypyrazolo[1,5-a]pyridin-3-yl)amino)-N-(methyl-d3)nicotinamide] | 9.73 | 40.6 | 8.12 | 6.89 |  |  | 7.09 | 4.5 | 308 |
| [2H]C([2H])([2H])NC(=O)c1nnc(NC(=O)C2CC2)cc1Nc1ncn2cccc2c1OC [Example 198, 6-(Cyclopropanecarboxamido)-4-((4-methoxypyrrolo[1,2-c]pyrimidin-3-yl)amino)-N-(methyl-d3)pyridazine-3-carboxamide, reference compound] | 8.83 | 7.0 | 7.98 | 6.59 |  |  | 5.83 |  |  |
| COC(=O)c1cnc(NC(=O)C2CC2)cc1Nc1nc2ccc(N3CC(OC)C3)cn2n1 [Example 107, Methyl 6-(cyclopropanecarbonylamino)-4-[[6-(3-methoxyazetidin-1-yl)-[1,2,4]triazolo[1,5-a]pyridin-2-yl]amino]pyridine-3-carboxylate] | 9.60 |  |  | 7.56 |  |  | 6.40 |  |  |
| [2H]C([2H])([2H])NC(=O)c1cnc(NC(=O)C2CC2)cc1Nc1nn(CC)c2ccc(C(O)C(F)(F)F)c(OC)c12 (single isomer, unassigned) [Example 71A, (S*)-6-(cyclopropanecarboxamido)-4-((1-ethyl-4-methoxy-5-(2,2,2-trifluoro-1-hydroxyethyl)-1H-indazol-3-yl)amino)-N-(methyl-d3)nicotinamide] | 9.85 | 51.84 | 8.14 |  |  | 9.39 | 7.26 |  |  |
| [2H]C([2H])([2H])CC(=O)c1cnc(NC(=O)C2CC2)cc1Nc1cnn2ccc([C@H](O)C(F)(F)F)c(OC)c12 [Example 141, (S)-N-(4-((4-methoxy-5-(2,2,2-trifluoro-1-hydroxyethyl)pyrazolo[1,5-a]pyridin-3-yl)amino)-5-(propanoyl-3,3,3-d3)pyridin-2-yl)cyclopropanecarboxamide] | 10.12 |  |  | 7.95 |  |  | 6.75 |  |  |
| [2H]C([2H])([2H])NC(=O)c1cnc(NC(=O)C2CC2)cc1Nc1cnn2ccc(CC#N)c(OC)c12 [Example 18, 4-((5-(Cyanomethyl)-4-methoxypyrazolo[1,5-a]pyridin-3-yl)amino)-6-(cyclopropanecarboxamido)-N-(methyl-d3)nicotinamide] | 9.89 | 12.5 | 8.79 | 7.04 |  |  | 7.07 |  |  |
